Experimental data from ChEMBL document CHEMBL4000244, “Probing A-form DNA: A fluorescent aminosugar probe and dual recognition by anthraquinone-neomycin conjugates” (Bioorg Med Chem, 2017).

Tests used:
[1] = Binding affinity to 5'-CGGCCGGG-3' DNA hairpin assessed as change in fluorescence intensity at 1 uM after 45 mins by fluorescence quenching analysis relative to control
[2] = Binding affinity to 5'-CGCGGCCG-3' DNA hairpin assessed as change in fluorescence intensity at 1 uM after 45 mins by fluorescence quenching analysis relative to control
[3] = Binding affinity to 5'-GCCGCCCG-3' DNA hairpin assessed as change in fluorescence intensity at 1 uM after 45 mins by fluorescence quenching analysis relative to control
[4] = Binding affinity to 5'-CCCGGCGG-3' DNA hairpin assessed as change in fluorescence intensity at 1 uM after 45 mins by fluorescence quenching analysis relative to control
[5] = Binding affinity to 5'-GCCGGCCC-3' DNA hairpin assessed as change in fluorescence intensity at 1 uM after 45 mins by fluorescence quenching analysis relative to control
[6] = Binding affinity to 5'-CGCGCGGC-3' DNA hairpin assessed as change in fluorescence intensity at 1 uM after 45 mins by fluorescence quenching analysis relative to control
[7] = Binding affinity to 5'-CGGCGGCG-3' DNA hairpin assessed as change in fluorescence intensity at 1 uM after 45 mins by fluorescence quenching analysis relative to control
[8] = Binding affinity to 5'-CCCCGCGC-3' DNA hairpin assessed as change in fluorescence intensity at 1 uM after 45 mins by fluorescence quenching analysis relative to control
[9] = Binding affinity to 5'-GGCGCCGC-3' DNA hairpin assessed as change in fluorescence intensity at 1 uM after 45 mins by fluorescence quenching analysis relative to control
[10] = Binding affinity to 5'-GCCCGCGG-3' DNA hairpin assessed as change in fluorescence intensity at 1 uM after 45 mins by fluorescence quenching analysis relative to control
[11] = Binding affinity to 5'-GGCGCCCC-3' DNA hairpin assessed as change in fluorescence intensity at 1 uM after 45 mins by fluorescence quenching analysis relative to control
[12] = Binding affinity to 5'-CCGGCGCG-3' DNA hairpin assessed as change in fluorescence intensity at 1 uM after 45 mins by fluorescence quenching analysis relative to control
[13] = Binding affinity to 5'-CCGCCCGG-3' DNA hairpin assessed as change in fluorescence intensity at 1 uM after 45 mins by fluorescence quenching analysis relative to control
[14] = Binding affinity to 5'-CCCCGGCC-3' DNA hairpin assessed as change in fluorescence intensity at 1 uM after 45 mins by fluorescence quenching analysis relative to control
[15] = Binding affinity to 5'-CGCCCCGC-3' DNA hairpin assessed as change in fluorescence intensity at 1 uM after 45 mins by fluorescence quenching analysis relative to control
[16] = Binding affinity to 5'-GGGCCGCG-3' DNA hairpin assessed as change in fluorescence intensity at 1 uM after 45 mins by fluorescence quenching analysis relative to control
[17] = Binding affinity to 5'-CCCCCGCC-3' DNA hairpin assessed as change in fluorescence intensity at 1 uM after 45 mins by fluorescence quenching analysis relative to control
[18] = Binding affinity to 5'-CCCGGGGG-3' DNA hairpin assessed as change in fluorescence intensity at 1 uM after 45 mins by fluorescence quenching analysis relative to control
[19] = Binding affinity to 5'-CGGCGGCC-3' DNA hairpin assessed as change in fluorescence intensity at 1 uM after 45 mins by fluorescence quenching analysis relative to control
[20] = Binding affinity to 5'-GGGGCGCC-3' DNA hairpin assessed as change in fluorescence intensity at 1 uM after 45 mins by fluorescence quenching analysis relative to control
[21] = Binding affinity to 5'-GCCCGGCC-3' DNA hairpin assessed as change in fluorescence intensity at 1 uM after 45 mins by fluorescence quenching analysis relative to control
[22] = Binding affinity to 5'-CCCCCGCG-3' DNA hairpin assessed as change in fluorescence intensity at 1 uM after 45 mins by fluorescence quenching analysis relative to control
[23] = Binding affinity to 5'-GCCGCGCG-3' DNA hairpin assessed as change in fluorescence intensity at 1 uM after 45 mins by fluorescence quenching analysis relative to control
[24] = Binding affinity to 5'-CCCGGCGC-3' DNA hairpin assessed as change in fluorescence intensity at 1 uM after 45 mins by fluorescence quenching analysis relative to control
[25] = Binding affinity to 5'-GGCGGCGG-3' DNA hairpin assessed as change in fluorescence intensity at 1 uM after 45 mins by fluorescence quenching analysis relative to control
[26] = Binding affinity to 5'-GGCCCCCC-3' DNA hairpin assessed as change in fluorescence intensity at 1 uM after 45 mins by fluorescence quenching analysis relative to control
[27] = Binding affinity to 5'-GCCCGGGC-3' DNA hairpin assessed as change in fluorescence intensity at 1 uM after 45 mins by fluorescence quenching analysis relative to control
[28] = Binding affinity to 5'-CCGGGCGG-3' DNA hairpin assessed as change in fluorescence intensity at 1 uM after 45 mins by fluorescence quenching analysis relative to control
[29] = Binding affinity to 5'-GGGCCCCG-3' DNA hairpin assessed as change in fluorescence intensity at 1 uM after 45 mins by fluorescence quenching analysis relative to control
[30] = Binding affinity to 5'-GCGCGCGG-3' DNA hairpin assessed as change in fluorescence intensity at 1 uM after 45 mins by fluorescence quenching analysis relative to control
[31] = Binding affinity to 5'-CGCCCCGG-3' DNA hairpin assessed as change in fluorescence intensity at 1 uM after 45 mins by fluorescence quenching analysis relative to control
[32] = Binding affinity to 5'-CGGGGCCC-3' DNA hairpin assessed as change in fluorescence intensity at 1 uM after 45 mins by fluorescence quenching analysis relative to control
[33] = Binding affinity to 5'-GCCGGCCG-3' DNA hairpin assessed as change in fluorescence intensity at 1 uM after 45 mins by fluorescence quenching analysis relative to control
[34] = Binding affinity to 5'-CCGCGCGG-3' DNA hairpin assessed as change in fluorescence intensity at 1 uM after 45 mins by fluorescence quenching analysis relative to control
[35] = Binding affinity to 5'-CGGGCCCC-3' DNA hairpin assessed as change in fluorescence intensity at 1 uM after 45 mins by fluorescence quenching analysis relative to control
[36] = Binding affinity to 5'-CCGCGCCG-3' DNA hairpin assessed as change in fluorescence intensity at 1 uM after 45 mins by fluorescence quenching analysis relative to control

Activity [1]: 41.4% | Activity [2]: 42% | Activity [3]: 45.8% | Activity [4]: 39.8% | Activity [5]: 37.6% | Activity [6]: 43.8% | Activity [7]: 46.5% | Activity [8]: 41.4% | Activity [9]: 48.4% | Activity [10]: 50.3% | Activity [11]: 37.8% | Activity [12]: 45.4% | Activity [13]: 56.8% | Activity [14]: 37.6% | Activity [15]: 38% | Activity [16]: 39.6% | Activity [17]: 39.1% | Activity [18]: 38.7% | Activity [19]: 43.8% | Activity [20]: 51.4% | Activity [21]: 36.2% | Activity [22]: 35.4% | Activity [23]: 58.2% | Activity [24]: 44.8% | Activity [25]: 46.8% | Activity [26]: 15% | Activity [27]: 41.1% | Activity [28]: 50.1% | Activity [29]: 18.1% | Activity [30]: 51.2% | Activity [31]: 41.9% | Activity [32]: 40.4% | Activity [33]: 45.3% | Activity [34]: 47.2% | Activity [35]: 35.1% | Activity [36]: 53.7%
SMILES: NCC1O[C@H](O[C@H]2[C@@H](O)[C@H](O[C@@H]3[C@@H](O)[C@H](N)C[C@H](N)[C@H]3O[C@H]3O[C@H](CN)[C@@H](O)[C@H](O)[C@H]3N)O[C@@H]2CSCCNC(=O)CCSCC(=O)Nc2ccc(-c3c4ccc(=O)cc-4oc4cc(O)ccc34)c(C(=O)O)c2)[C@H](N)[C@@H](O)[C@@H]1O (stereo partly specified)
